# Assay results reported in patent publication US8445449B2, “Method and peptide for regulating cellular activity” (The United States of America, as represented by the …, priority 2004, dated 2013).
# Read-outs that look alike come from different tables or passages of the source. Where no end group is shown, it is not given here.
# Columns and labels:
# [1] = system: bacterial-induced middle ear inflammation; conditions: 10 μM peptide without bacteria, five mice, 3 days
Sequence,effect on cell viability (cell viability; 10 μM),"effect of peptide alone on fluid area, cell number, tympanic membrane thickness vs PBS injected ear [1]",effect on cell viability (cell viability)
DIVKLTVYDCIRRRRRRRRR [peptide P13],no effect on cell viability,no differences,–
"ITCVDVDLIYKRRRRRRRRR [Scrambled peptide, reference compound]",–,–,no effect on cell viability
